Drawing on patent US6828344B1, “Inhibitors of phospholipase enzymes” (Genetics Institute, LLC, priority 1998, dated 2004), this text covers IC50 for six compounds.

In the test the target is T1, cPLA2 (Homo sapiens, UniProt P47712).
T1 sequence (P47712 1-749): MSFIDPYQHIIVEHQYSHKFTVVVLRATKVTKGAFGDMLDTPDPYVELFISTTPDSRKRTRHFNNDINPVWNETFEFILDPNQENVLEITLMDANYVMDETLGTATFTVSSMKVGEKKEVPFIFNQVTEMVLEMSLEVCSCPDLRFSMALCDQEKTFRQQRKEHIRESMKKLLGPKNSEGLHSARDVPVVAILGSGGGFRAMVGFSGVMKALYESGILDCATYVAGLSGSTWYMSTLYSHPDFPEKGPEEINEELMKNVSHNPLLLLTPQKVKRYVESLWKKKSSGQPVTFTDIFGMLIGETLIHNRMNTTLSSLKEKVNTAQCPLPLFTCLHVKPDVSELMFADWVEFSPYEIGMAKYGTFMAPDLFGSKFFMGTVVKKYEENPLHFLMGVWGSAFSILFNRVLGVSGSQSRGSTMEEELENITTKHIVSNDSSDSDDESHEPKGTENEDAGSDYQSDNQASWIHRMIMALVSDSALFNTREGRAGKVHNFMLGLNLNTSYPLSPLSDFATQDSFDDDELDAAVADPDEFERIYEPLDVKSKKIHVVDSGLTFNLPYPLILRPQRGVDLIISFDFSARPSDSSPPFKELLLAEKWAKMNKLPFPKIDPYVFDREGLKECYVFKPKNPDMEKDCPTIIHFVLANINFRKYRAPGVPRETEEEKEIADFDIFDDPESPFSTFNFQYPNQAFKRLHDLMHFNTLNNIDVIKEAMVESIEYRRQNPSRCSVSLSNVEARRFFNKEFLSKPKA
Briefly: Coumarine assay (cPLA2 inhibition). Conditions: 7-hydroxycoumarinyl 6-heptenoate as monomeric substrate, fluorescence 360/460 nm; read-out: Coumarin IC50. It counts as biochemical. The protocol:
7-hydroxycoumarinyl 6-heptenoate was used as a monomeric substrate for cPLA2 as reported previously (Huang, Z. et al., 1994, Nalytical Biochemistry 222, 110-115). Inhibitors were mixed with 200 μL assay buffer (80 mM Heped, pH 7.5, l mM EDTA) containing 60 μM 7-hydroxycoumarinyl 6-heptenoate. The reaction was initiated by adding 4 μg cPLA2 in 50 μL assay buffer. Hydrolysis of the 7-hydroxycoumarinyl 6-heptenoate ester was monitored in a fluorometer by exciting at 360 nm and monitoring emission at 460 nm. Enzyme activity is proportional to the increase in emission at 460 nm per minute. In the presence of a cPLA2 inhibitor, the rate of increase is less.
In the case of `Cc1c(C(c2ccccc2)c2ccccc2)c2cc(Cl)ccc2n1CCOc1ccc(CCC(=O)O)cc1` [Example 90, 3-{4-[2-(3-benzhydryl-5-chloro-2-methyl-1H-indol-1-yl)ethoxy]phenyl}propanoic acid], the IC50 turned out to be 1200 nM.
In the case of `Cc1c(C(c2ccccc2)c2ccccc2)c2cc(Cl)ccc2n1C/C=C/COc1ccc(C(=O)O)cc1` [Example 88, 4-{[(E)-4-(3-benzhydryl-5-chloro-2-methyl-1H-indol-1-yl)-2-butenyl]oxy}benzoic acid], the IC50 was determined as 1100 nM.
Under `Cc1c(C(c2ccccc2)c2ccccc2)c2cc(Cl)ccc2n1CCOc1ccc(C(=O)O)cc1` [Example 89, 4-[2-(3benzhydryl-5-chloro-2-methyl-1H-indol-1-yl)ethoxy]benzoic acid] stands 2500 nM.
Under `Cc1c(C(c2ccccc2)c2ccccc2)c2ccccc2n1CCOc1ccc(C(=O)O)cc1` [Example 93, 4-[2-(3-benzhydryl-2-methyl-1H-indol-1-yl)ethoxy]benzoic acid] stands 2500 nM.
As for `O=C(O)CCc1ccc(S(=O)(=O)CCn2cc(C(c3ccccc3)c3ccccc3)c3ccc(Cl)cc32)cc1` [Example 91, 3(4-{[2-(3-benzhydryl-6-chloro-1H-indol-1-yl)ethyl]sulfonyl}phenyl)propanoic acid], the IC50 amounted to 4000 nM.
In the case of `O=C(O)c1ccc(S(=O)(=O)CCn2cc(C(c3ccccc3)c3ccccc3)c3ccc(Cl)cc32)cc1` [Example 92, 4-{[2-(3-benzhydryl-6-chloro-1H-indol-1-yl)ethyl]sulfonyl}benzoic acid], the half-maximal inhibitory concentration (IC50) was 9000 nM.

By IC50 is commonly meant the concentration needed to halve the response being measured.
